This passage reports IC50 results from US8778919B2, “Cyclic anilino—pyridinotriazines” (Janssen Pharmaceutica NV, priority 2005, dated 2014).

GSK-3α, sequence (P49840 whole entry, species assumed): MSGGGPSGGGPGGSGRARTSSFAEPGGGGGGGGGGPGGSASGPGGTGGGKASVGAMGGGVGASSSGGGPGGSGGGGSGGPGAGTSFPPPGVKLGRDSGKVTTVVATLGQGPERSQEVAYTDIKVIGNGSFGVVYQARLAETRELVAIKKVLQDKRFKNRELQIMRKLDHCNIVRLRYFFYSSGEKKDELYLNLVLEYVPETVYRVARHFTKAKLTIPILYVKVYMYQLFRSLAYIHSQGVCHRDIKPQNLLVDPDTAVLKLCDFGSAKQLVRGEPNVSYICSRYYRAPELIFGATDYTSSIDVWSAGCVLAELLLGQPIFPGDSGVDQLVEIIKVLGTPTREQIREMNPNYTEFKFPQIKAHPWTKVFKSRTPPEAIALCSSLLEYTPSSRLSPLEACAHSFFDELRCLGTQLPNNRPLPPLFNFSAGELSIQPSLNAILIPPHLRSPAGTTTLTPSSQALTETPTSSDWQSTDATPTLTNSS
GSK-3β, sequence (P49841 whole entry, species assumed): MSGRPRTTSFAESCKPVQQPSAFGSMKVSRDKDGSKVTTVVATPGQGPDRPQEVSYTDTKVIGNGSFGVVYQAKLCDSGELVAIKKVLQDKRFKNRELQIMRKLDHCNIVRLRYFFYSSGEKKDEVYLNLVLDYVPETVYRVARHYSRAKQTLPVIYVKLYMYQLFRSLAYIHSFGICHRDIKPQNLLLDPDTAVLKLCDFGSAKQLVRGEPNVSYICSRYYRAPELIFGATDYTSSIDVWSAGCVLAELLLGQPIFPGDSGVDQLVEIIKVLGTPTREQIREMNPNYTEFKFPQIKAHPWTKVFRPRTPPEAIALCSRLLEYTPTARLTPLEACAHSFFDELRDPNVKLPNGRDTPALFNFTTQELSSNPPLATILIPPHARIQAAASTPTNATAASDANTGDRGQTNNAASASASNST

The first experiment has as its target GSK-3β (Homo sapiens, UniProt P49841). The experiment in a line: GSK-3 kinase assay (C1), GSK-3β. The class given is biochemical. To be noted: 1 μM ATP, read-out: C1 Score β. Here is the method:
(§1) In vitro GSK-3 assays were performed at room temperature in a 100 μl reaction volume of 25 mM Tris (pH 7.4) containing 10 mM MgCl2.6H2O, 1 mM DTT, 0.1 mg/ml BSA, 5% glycerol, 5.7 ng/μl GSK-3β or 0.25 ng/μl GSK-3α, 5 μM biotinylated CREB peptide, 1 μM ATP, 0.85 μCi/ml ^33P-ATP and a suitable amount of a test compound. After one hour, the reaction was terminated by adding 70 μl of Stop mix (0.1 mM ATP, 5 mg/ml streptavidin coated PVT SPA beads, pH 11.0). The beads were allowed to settle overnight and the radioactivity attached to the beads was counted in a microtiter plate scintillation counter and compared with the results obtained in a control experiment (without the presence of a test compound) in order to determine the percentage of GSK-3 inhibition. The IC50 value, i.e. the concentration (M) of the test compound at which 50% of GSK-3 is inhibited, was calculated from the dose response curve obtained by performing the above-described GSK-3 assay in the presence of different amounts of the test compound. Score 1=pIC50 value<6, Score 2=pIC50 value from 6-7, Score 3=pIC50 value from 7-8, Score 4=pIC50 value>8.
For `O=C1NCCc2cccc(c2)Nc2ncnc(n2)-c2ccnc(c2)CCCN2CCCC12` (stereo not drawn) [Compound 28], the IC50 lay in the range of 10 to 100 nM. On the same count and under the same terms, the value for `O=C1CCN2CCN(CCCc3cc(ccn3)-c3ncnc(n3)Nc3cccc(c3)CCN1)CC2` [Compound 29] was 10 to 100 nM. `O=C1NCCCc2cc(ccn2)-c2ncnc(n2)Nc2cccc(c2)CN2CCC1CC2` [Compound 16]: the IC50 is 10 to 100 nM.

`CN1CC(=O)NCCNc2cccc(c2)-c2ncnc(n2)Nc2cccc(c2)C1` [Compound 43]: the IC50 lay within 10 to 100 nM.

Another experiment deals with GSK-3α (Homo sapiens, UniProt P49840). The experiment in a line: GSK-3 kinase assay (C1), GSK-3α. The class given is biochemical. To be noted: 1 μM ATP, read-out: C1 Score α. How it is done:
as §1
`O=C1NCCc2cccc(c2)Nc2ncnc(n2)-c2ccnc(c2)CCCN2CCCC12` (stereo not drawn) [Compound 28]: the IC50 lay within 100 to 1000 nM. As for `O=C1CCN2CCN(CCCc3cc(ccn3)-c3ncnc(n3)Nc3cccc(c3)CCN1)CC2` [Compound 29], the IC50 was in the range of 10 to 100 nM. `O=C1NCCNc2cccc(c2)-c2ncnc(n2)Nc2cccc(c2)CN[C@H]1Cc1ccccc1` [Compound 64]: the IC50 was in the range of 100 to 1000 nM.

As to `O=C1NCCCc2cccc(c2)-c2ncnc(n2)Nc2cccc(c2)CN[C@H]1Cc1ccccc1` [Compound 45], the IC50 is 10 to 100 nM. Same read-out and setting: the same measure for `O=C1CCN2CCN(CC2)Cc2cccc(c2)Nc2ncnc(n2)-c2cccc(c2)CCCN1` [Compound 57]: 100 to 1000 nM; for `CN1CCC(=O)NCCCCc2cc(ccn2)-c2ncnc(n2)Nc2cccc(c2)C1` [Compound 68]: 100 to 1000 nM; for `CN1CC(=O)NCCOc2cccc(c2)Nc2ncnc(n2)-c2ccnc(c2)C1` [Compound 76]: less than 10 nM.

For the compound `C[C@@H]1NCc2cccc(c2)Nc2ncnc(n2)-c2cccc(c2)CCCNC1=O` [Compound 44], the IC50 fell in the range of 100 to 1000 nM. On the same count and under the same terms, the same measure for `CC1(C)NCc2cccc(c2)Nc2ncnc(n2)-c2cccc(c2)CCCNC1=O` [Compound 48]: 100 to 1000 nM; for `O=C1NCCCc2cccc(c2)-c2ncnc(n2)Nc2cccc(c2)CN2CCC1CC2` [Compound 51]: 10 to 100 nM; for `O=C1NCCCc2cccc(c2)-c2ncnc(n2)Nc2cccc(c2)CN2CCC[C@@H]12` [Compound 56]: 100 to 1000 nM.

`CN1CC(=O)N2CCN(CCc3cc(ccn3)-c3ncnc(n3)Nc3cccc(c3)C1)CC2` [Compound 77]: the IC50 was in the range of 100 to 1000 nM. Still for that read-out and setting: the same measure for `O=C1CNCc2cccc(c2)Nc2ncnc(n2)-c2cccc(c2)CCCN1` [Compound 42]: 100 to 1000 nM; for `C[C@H]1NCc2cccc(c2)Nc2ncnc(n2)-c2cccc(c2)CCCNC1=O` [Compound 47]: 10 to 100 nM. The same measure, in the same setting: the same measure for `O=C1NCCCc2cc(ccn2)-c2ncnc(n2)Nc2cccc(c2)CN2CCC1CC2` [Compound 16]: 10 to 100 nM; for `CN1CCC(=O)NCCCc2cccc(c2)-c2ncnc(n2)Nc2cccc(c2)C1` [Compound 49]: 10 to 100 nM; for `CN1CC(=O)NCCNc2cccc(c2)-c2ncnc(n2)Nc2cccc(c2)C1` [Compound 43]: 100 to 1000 nM. The same measure, in the same setting: the value for `O=C1NCCNc2cccc(c2)-c2ncnc(n2)Nc2cccc(c2)CN2CCCC1C2` (stereo not drawn) [Compound 61] was 100 to 1000 nM; that for `O=C1NCCCc2cccc(c2)-c2ncnc(n2)Nc2cccc(c2)CN2C[C@@H](O)C[C@H]12` [Compound 50] was 10 to 100 nM; that for `O=C1CCN2CCN(CC2)Cc2cccc(c2)Nc2ncnc(n2)-c2cccc(c2)NCCN1` [Compound 60] was 100 to 1000 nM. Regarding `C=CCN1CC(=O)NCCNc2ncccc2-c2ncnc(n2)Nc2cccc(c2)C1` [Compound 79], the IC50 lay in the range of 100 to 1000 nM. Same read-out and setting: the same measure for `C[C@@H]1NCc2cccc(c2)Nc2ncnc(n2)-c2cccc(c2)NCCNC1=O` [Compound 63]: 100 to 1000 nM; for `CN1CCCC(=O)NCCCc2cccc(c2)-c2ncnc(n2)Nc2cccc(c2)C1` [Compound 53]: 10 to 100 nM. For the compound `O=C1COc2cccc(c2)Nc2ncnc(n2)-c2ccnc(c2)CCCN1` [Compound 74], the IC50 was in the range of 10 to 100 nM. For the compound `O=C1NCCOc2ccc(cc2)-c2ncnc(n2)Nc2cccc(c2)CN2CCC1CC2` [Compound 73], the IC50 lay within 100 to 1000 nM. Consider `O=C1NCCNc2cccc(c2)-c2ncnc(n2)Nc2cccc(c2)CN2CCC1CC2` [Compound 62], for which the IC50 was in the range of 100 to 1000 nM. Consider `O=C1NCCCc2cccc(c2)-c2ncnc(n2)Nc2cccc(c2)CN2CCCC1C2` (stereo not drawn) [Compound 55], for which the IC50 lay in the range of 10 to 100 nM.

`C[C@H]1NCCCc2cccc(c2)-c2ncnc(n2)Nc2ccccc2CNC1=O` [Compound 80]: the IC50 lay within 100 to 1000 nM. On the same count and under the same terms, the same measure for `O=C1COc2cccc(c2)Nc2ncnc(n2)-c2ccnc(c2)CCCN2CCN1CC2` [Compound 78]: 10 to 100 nM.
